Reference: patent US20250213474A1, “COMPOSITIONS AND METHODS FOR METAL CONTAINING FORMULATIONS CAPABLE OF MODULATING IMMUNE RESPONSE” (The Regents of the University of Michigan, priority 2021, published 2025)

What was measured:
CT26 colon cancer cells [1] = test: CT26 colon tumor model, metal ion-CDA combinations and coordination formulations; type: in vivo, Balb/c mice; set-up: concentration or dose not given beside the values; conditions: three doses intratumoral on day 9, 12, 15
Protocol: FIGS. 6A-6D: Enhanced STING activation and cancer therapy efficacy by Co^2+ and Mn^2+ in Vivo. (FIG. 6A) individual tumor growth curve after three doses of intratumor injection of the indicated formulation at day 9, 12, 15 after tumor inoculation. (FIG. 6B) Serum IFN-beta concentration 8 h after the 1st dose of the indicated formulation. (FIGS. 6C-6D) individual tumor growth (FIG. 6C) and survival (FIG. 6D) of the tumor bearing mice after treated with the indicated formulations.
FIGS. 7A-7E: Enhanced STING activation by Co^2+ and Mn^2+ led to improved antigen specific immune response after In vivo. (FIG. 7A) the percentage of AH1-specific CD8+ T cells among PBMC on day 16. (FIG. 7B) IFN-γ secreting cells counts per 5E4 PBMCs after stimulation with AH1 peptides at day 22. […]
All animals were cared for following federal, state, and local guidelines. […] Tumor size and survival were monitored every 2 or 3 days. Tumor size was calculated based on equation: volume=length×width^2×0.5. […] At day 17, the percentages of tumor antigen-specific CD8α+ T cells among PBMC were analyzed using the tetramer staining assay as described previously with peptide-MHC tetramer ([…] AH1) (the NIH Tetramer Core Facility, Atlanta, GA). […]

CT26 colon cancer cells [2] = test: CT26 tumor model, I.V. administration of CMP; type: in vivo; conditions: free CDA 100 μg; CMPCDA 20 μg
Protocol: (FIG. 22A) CT26 tumor-bearing BALB/c mice were treated with CDA+ Mn^2+ or CMPCDA, I.V. on days 9, 12, and 15. […] (FIGS. 22D-22F) Tumor growth (FIGS. 22D-22E) and animal survival (FIG. 22F) were Monitored over time. (FIG. 22G) Survivors re-challenged with CT26 tumor cells on day 145 were monitored for tumor Growth and survival.
For CT26 murine tumor model, female BALB/c mice of age 6-8 weeks (Jackson Laboratories) were inoculated with 1.5×10^5 CT26 colon cancer cells subcutaneously on the right back flank. […] Tumor-bearing mice were randomly assigned to different treatment groups. Indicated drugs or formulations were administrated via indicated route at indicated time points. Tumor size and survival were monitored every 2-4 days. Tumor size was calculated based on equation: volume=length×width^2×0.5. Animals were euthanized when the tumor reached 1.5 cm in diameter or when animals became moribund with severe weight loss or un-healing ulceration.
To address this issue, we evaluated the therapeutic effect of CMP after I.V. administration. CT26 tumor-bearing BABL/c mice were treated I.V. on days 9, 12, and 15 with 20 μg CDA and 10 μg Mn^2+ either in CMPCDA or soluble form (FIG. 22A).

NOOC1 tumor cells = test: NOOC1 ICB-resistant squamous cell carcinoma model; type: in vivo, C57BL/6 mice; conditions: CDA dose 5 μg I.T. or 20 μg I.V., days 9, 12, 16, 20
Protocol: NOOC1 was maintained in the IMDM media (Gibco cat #12440053). To make 1L of growth media for NOOC1, 626 ml IMDM base was mixed with 313 ml F-12 nutrient mix (Gibco cat #11765054), 50 ml FBS (Hyclone cat #SH3039603), 10 ml Pen Strep (Thermo Fisher cat #15-140-122), 1.25 ml of 4 mg/ml insulin (Invitrogen cat #12585014), 200 μl of 200 μg/ml hydrocortisone (Sigma-Aldrich cat #H0888-1G), and 50 μl of 100 μg/ml EGF (EMD Millipore cat #01-107). For in vivo implantation, Matrigel (Thermo Fisher cat #CB-40230) was thawed overnight at 4° C. On the day of injection, NOOC1 was washed once with PBS and mixed with Matrigel to reach a density of 2×10^7 cells/ml. Each mouse was inoculated subcutaneously with 2×10^6 cells (100 μl). Tumor size and survival were monitored every 2 or 3 days as indicated above.
To further evaluate the potency of CMP, we performed head-to-head comparison studies between CMPCDA and other STING-activating formulations. C57BL/6 mice were inoculated at S.C. flank with 3×10^5 B16F10 tumors cells, and we administered three doses of CMPCDA on three-day intervals via either I.T. route when the average tumor volume reached 153±17 mm^3 (FIGS. 23A-23E) or via I.V. route when the average tumor volume reached 63±7 mm^3. (FIGS. 23F-23J)). […]

## Nc1ncnc2c1ncn2[C@@H]1O[C@@H]2COP(=O)(O)O[C@H]3[C@@H](O)[C@H](n4cnc5c(N)ncnc54)O[C@@H]3COP(=O)(O)O[C@H]2[C@H]1O [free CDA, cyclic-di-AMP]
CT26 colon cancer cells [1]
  survival rate: 20%
CT26 colon cancer cells [2]
  control of tumor growth by I.V. therapy: could not control tumor growth
NOOC1 tumor cells
  anti-tumor efficacy in NOOC1 model: refractory
